Legend:
HeLa cells = settings: 100 nM nocodazole 16 h, 10 μM, 40 min; in contrast to interphase cells
three types of cells = settings: cited from earlier work
[1] = statement in abstract; no data in this paper; cited from earlier work

rhodamine-R.I.-CKTat9 [Rho-R.I.-CKTat9]
uptake by HeLa cells arrested in M phase (microscopy) (HeLa cells): did not take up

polyarginine
reduction of cell-associated fluorescence by high potassium buffer (three types of cells): more than 90%

5(6)-Carboxyfluorescein-R.I.-CKTat9 [Flu-R.I.-CKTat9]
cell surface-bound amount at 0 °C in KPBS versus PBS (HeLa cell surface): no difference

Acetyl-dC-dK-dR-dR-dR-dQ-dR-dR-dK-dK-dR-CONH2 [R.I.-CKTat9]
proteolytic stability [1]: proteolytically stable

Source: publication PMC2859821 (Molecular pharmaceutics, 2009)
